Assay results from ChEMBL document CHEMBL4373693, “Virtual Screening Approach and Investigation of Structure-Activity Relationships To Discover Novel Bacterial Topoisomerase Inhibitors Targeting Gram-Positive and Gram-Negative Pathogens” (J Med Chem, 2019).
Converted amounts (≈) assume the structure as drawn. Blank lines part the entries; values can stand above or below the compound they belong to.

Tests used:
[1] = system: Escherichia coli; test: Antibacterial activity against Escherichia coli ATCC 25922 in presence of 50% human serum after 16 to 24 hrs by broth microdilution method; type: functional
[2] = system: Enterococcus faecalis; test: Antibacterial activity against vancomycin and teicoplanin-resistant Enterococcus faecalis APV 00409 after 16 to 24 hrs by broth microdilution method; type: functional
[3] = system: Enterococcus faecium; test: Antibacterial activity against vancomycin resistant and teicoplanin sensitive Enterococcus faecium APV 00420 after 16 to 24 hrs by broth microdilution method; type: functional
[4] = system: Staphylococcus aureus; test: Antibacterial activity against Staphylococcus aureus ATCC 29213 after 16 to 24 hrs by broth microdilution method; type: functional
[5] = target: DNA topoisomerase 4 subunit A (Staphylococcus aureus, UniProt P0C1U9); test: Inhibition of Staphylococcus aureus ATCC 29213 DNA topoisomerase 4 subunit ParC assessed as reduction in decatenation of kinetoplast DNA incubated for 30 mins by ethidium bromide staining based gel electrophoresis method
[6] = system: Haemophilus influenzae; test: Antibacterial activity against quinolone-sensitive Haemophilus influenzae H128 after 16 to 24 hrs by broth microdilution method; type: functional
[7] = target: DNA gyrase subunit A (Staphylococcus aureus, UniProt P20831); test: Inhibition of Staphylococcus aureus ATCC 29213 DNA gyrase A assessed as reduction in enzyme-mediated supercoiling of relaxed pBR322 DNA by ethidium bromide staining based gel electrophoresis method
[8] = system: Staphylococcus aureus; test: Antibacterial activity against Staphylococcus aureus BAA-1720 after 16 to 24 hrs by broth microdilution method; type: functional
[9] = system: Staphylococcus aureus; test: Selectivity ratio of MIC for Staphylococcus aureus ATCC 29213 in presence of 50% human serum to MIC for Staphylococcus aureus ATCC 29213; type: functional
[10] = system: Neisseria gonorrhoeae; test: Antibacterial activity against Neisseria gonorrhoeae ATCC 19424 after 16 to 24 hrs by broth microdilution method; type: functional
[11] = system: Escherichia coli; test: Selectivity ratio of MIC for Escherichia coli ATCC 25922 in presence of 50% human serum to MIC for Escherichia coli ATCC 25922; type: functional
[12] = system: HepG2; test: Cytotoxicity against human HepG2 cells after 48 hrs by Alamar blue staining-based fluorometric analysis; type: cell-based; conditions: HepG2, 48 h
[13] = system: Staphylococcus aureus; test: Antibacterial activity against Staphylococcus aureus BAA-1720 in presence of 50% human serum after 16 to 24 hrs by broth microdilution method; type: functional
[14] = system: Enterococcus faecalis; test: Antibacterial activity against vancomycin-sensitive Enterococcus faecalis APV 00623 after 16 to 24 hrs by broth microdilution method; type: functional
[15] = system: Enterococcus faecium; test: Antibacterial activity against Enterococcus faecium APV 00627 after 16 to 24 hrs by broth microdilution method; type: functional
[16] = target: DNA gyrase subunit A (Escherichia coli K-12, UniProt P0AES4); test: Inhibition of Escherichia coli ATCC 25922 DNA gyrase A assessed as reduction in enzyme-mediated supercoiling of relaxed pBR322 DNA by ethidium bromide staining based gel electrophoresis method
[17] = target: T1, DNA topoisomerase 4 subunit A (Escherichia coli K-12, UniProt P0AFI2); test: Inhibition of Escherichia coli ATCC 25922 DNA topoisomerase 4 subunit ParC assessed as reduction in decatenation of kinetoplast DNA incubated for 30 mins by ethidium bromide staining based gel electrophoresis method
T1 sequence (P0AFI2 whole entry): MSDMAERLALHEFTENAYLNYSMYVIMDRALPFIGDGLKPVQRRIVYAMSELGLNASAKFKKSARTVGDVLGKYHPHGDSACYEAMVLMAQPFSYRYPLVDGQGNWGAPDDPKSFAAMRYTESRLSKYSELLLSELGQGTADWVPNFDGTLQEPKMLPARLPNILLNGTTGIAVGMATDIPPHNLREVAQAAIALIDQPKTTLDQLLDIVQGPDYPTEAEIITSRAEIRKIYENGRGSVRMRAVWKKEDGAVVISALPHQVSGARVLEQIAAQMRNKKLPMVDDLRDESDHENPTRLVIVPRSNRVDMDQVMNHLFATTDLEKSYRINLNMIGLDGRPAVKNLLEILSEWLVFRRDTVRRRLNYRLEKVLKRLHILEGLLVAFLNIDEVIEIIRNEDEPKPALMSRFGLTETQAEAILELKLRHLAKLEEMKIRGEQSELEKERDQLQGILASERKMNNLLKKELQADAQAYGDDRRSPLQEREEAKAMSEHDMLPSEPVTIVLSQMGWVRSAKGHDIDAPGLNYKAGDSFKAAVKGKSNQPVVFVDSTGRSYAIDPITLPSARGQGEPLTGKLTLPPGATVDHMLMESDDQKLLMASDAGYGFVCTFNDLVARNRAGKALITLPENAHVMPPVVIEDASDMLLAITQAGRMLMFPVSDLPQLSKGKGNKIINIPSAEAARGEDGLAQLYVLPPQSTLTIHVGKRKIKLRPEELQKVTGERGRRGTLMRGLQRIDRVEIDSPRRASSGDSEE

[18] = system: Enterococcus faecalis; test: Antibacterial activity against vancomycin and teicoplanin-resistant Enterococcus faecalis APV 00408 after 16 to 24 hrs by broth microdilution method; type: functional
[19] = system: Staphylococcus aureus; test: Selectivity ratio of MIC for Staphylococcus aureus BAA-1720 in presence of 50% human serum to MIC for Staphylococcus aureus BAA-1720; type: functional
[20] = system: Staphylococcus aureus; test: Antibacterial activity against Staphylococcus aureus ATCC 29213 in presence of 50% human serum after 16 to 24 hrs by broth microdilution method; type: functional
[21] = system: HaCaT; test: Cytotoxicity against human HaCaT cells after 24 hrs by resazurin dye based CellTiter-Blue assay; type: cell-based
[22] = system: HEK293; test: Cytotoxicity against human HEK293 cells after 48 hrs by Alamar blue staining-based fluorometric analysis; type: cell-based; conditions: HEK293, 48 h
[23] = system: Pseudomonas aeruginosa; test: Antibacterial activity against Pseudomonas aeruginosa ATCC 27853 after 16 to 24 hrs by CLSI method; type: functional
[24] = system: Escherichia coli; test: Antibacterial activity against Escherichia coli ATCC 25922 after 16 to 24 hrs by broth microdilution method; type: functional
[25] = system: Enterococcus faecalis; test: Antibacterial activity against Enterococcus faecalis ATCC 29212 after 16 to 24 hrs by broth microdilution method; type: functional
[26] = system: Klebsiella pneumoniae; test: Antibacterial activity against quinolone-sensitive Klebsiella pneumoniae ATCC 700603 after 16 to 24 hrs by broth microdilution method; type: functional
[27] = Selectivity ratio, ratio of IC50 for human HEK293 cells to MIC for Escherichia coli ATCC 25922; type: toxicity; conditions: read-out: Selectivity Index
[28] = system: Enterococcus faecalis; test: Antibacterial activity against vancomycin-sensitive Enterococcus faecalis APV 00406 after 16 to 24 hrs by broth microdilution method; type: functional
[29] = system: Enterococcus faecium; test: Antibacterial activity against vancomycin and teicoplanin-resistant Enterococcus faecium APV 00424 after 16 to 24 hrs by broth microdilution method; type: functional
[30] = system: Enterococcus faecalis; test: Antibacterial activity against vancomycin-sensitive Enterococcus faecalis APV 00404 after 16 to 24 hrs by broth microdilution method; type: functional
[31] = Selectivity ratio, ratio of IC50 for human HEK293 cells to MIC for Staphylococcus aureus ATCC 29213; type: toxicity; conditions: read-out: Selectivity Index
[32] = target: hERG (KCNH2) (Homo sapiens, UniProt Q12809); test: Inhibition of human ERG expressed in CHO cells at 10 uM after 5 mins by automated whole-cell patch clamp relative to control; type: cell-based; conditions: CHO cells that express human ERG
[33] = system: Haemophilus influenzae; test: Antibacterial activity against quinolone-sensitive Haemophilus influenzae ATCC 49766 after 16 to 24 hrs by broth microdilution method; type: functional
[34] = system: Enterococcus faecium; test: Antibacterial activity against Enterococcus faecium APV 00626 after 16 to 24 hrs by broth microdilution method; type: functional
[35] = system: Enterococcus faecium; test: Antibacterial activity against vancomycin and teicoplanin-resistant Enterococcus faecium APV 00422 after 16 to 24 hrs by broth microdilution method; type: functional
[36] = Selectivity ratio, ratio of IC50 for human HepG2 cells to MIC for Staphylococcus aureus ATCC 29213; type: toxicity; conditions: read-out: Selectivity Index
[37] = system: Enterococcus faecium; test: Antibacterial activity against vancomycin resistant and teicoplanin sensitive Enterococcus faecium APV 00553 after 16 to 24 hrs by broth microdilution method; type: functional
[38] = Selectivity ratio, ratio of IC50 for human HepG2 cells to MIC for Escherichia coli ATCC 25922; type: toxicity; conditions: read-out: Selectivity Index
[39] = target: DNA gyrase (Escherichia coli, UniProt P0AES4+P0AES6); test: Inhibition of Escherichia coli DNA gyrase; type: protein-complex assay
[40] = target: DNA gyrase (Staphylococcus aureus, UniProt P0A0K8+P20831); test: Inhibition of Staphylococcus aureus DNA gyrase; type: protein-complex assay
[41] = system: Escherichia coli; test: Antibacterial activity against Escherichia coli; type: functional

Chain of hERG (KCNH2) (Q12809 whole entry): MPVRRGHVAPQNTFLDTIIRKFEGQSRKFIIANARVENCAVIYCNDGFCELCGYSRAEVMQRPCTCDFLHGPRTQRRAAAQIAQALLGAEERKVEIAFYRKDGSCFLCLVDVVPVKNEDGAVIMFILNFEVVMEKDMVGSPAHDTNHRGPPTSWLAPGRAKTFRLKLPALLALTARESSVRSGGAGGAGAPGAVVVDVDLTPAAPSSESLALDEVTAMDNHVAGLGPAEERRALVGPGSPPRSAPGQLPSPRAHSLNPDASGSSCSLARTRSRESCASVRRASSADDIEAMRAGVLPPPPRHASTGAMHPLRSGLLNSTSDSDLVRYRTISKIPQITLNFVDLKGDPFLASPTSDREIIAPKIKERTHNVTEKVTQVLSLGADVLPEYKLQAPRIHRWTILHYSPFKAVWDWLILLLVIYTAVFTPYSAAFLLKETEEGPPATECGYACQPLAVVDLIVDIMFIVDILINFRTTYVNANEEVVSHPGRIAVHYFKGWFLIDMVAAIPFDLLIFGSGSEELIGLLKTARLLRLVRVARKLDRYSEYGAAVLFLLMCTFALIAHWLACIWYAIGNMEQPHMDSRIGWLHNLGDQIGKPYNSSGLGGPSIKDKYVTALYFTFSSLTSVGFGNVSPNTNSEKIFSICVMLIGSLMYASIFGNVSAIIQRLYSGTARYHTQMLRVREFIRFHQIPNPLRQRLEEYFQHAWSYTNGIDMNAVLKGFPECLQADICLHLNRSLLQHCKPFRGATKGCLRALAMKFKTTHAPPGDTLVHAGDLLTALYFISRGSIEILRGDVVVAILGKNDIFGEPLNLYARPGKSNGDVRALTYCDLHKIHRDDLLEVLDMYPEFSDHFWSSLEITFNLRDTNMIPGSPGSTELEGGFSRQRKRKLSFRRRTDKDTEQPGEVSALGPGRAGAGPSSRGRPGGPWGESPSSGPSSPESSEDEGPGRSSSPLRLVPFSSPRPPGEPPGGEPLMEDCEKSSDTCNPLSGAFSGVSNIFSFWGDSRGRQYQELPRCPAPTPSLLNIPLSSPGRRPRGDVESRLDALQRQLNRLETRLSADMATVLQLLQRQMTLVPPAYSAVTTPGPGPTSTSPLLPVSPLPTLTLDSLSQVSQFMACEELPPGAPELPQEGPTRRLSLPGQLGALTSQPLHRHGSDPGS

Compound: O=c1nc(NCC(O)CN2CCN(c3nc(F)cc4ccc(F)cc34)CC2)c2cc(F)ccc2o1 (racemic)
MIC [1]: > 8 µg/mL
MIC [2]: 0.06 µg/mL (≈ 0.124 µM)
MIC [3]: 0.25 µg/mL (≈ 0.515 µM)
MIC [4]: < 0.12 µM
IC50 [5]: 40 nM
MIC [6]: 0.06 µg/mL (≈ 0.124 µM)
IC50 [7]: 20 nM
MIC [8]: 0.03 µg/mL (≈ 0.0618 µM)
Ratio [9]: >=32 - 267
MIC [10]: ≤ 0.06 µg/mL
Ratio [11]: >=32 - 267
IC50 [12]: 31000 nM
MIC [13]: 4 µg/mL
MIC [14]: 0.12 µg/mL (≈ 0.247 µM)
MIC [15]: 0.5 µg/mL (≈ 1.03 µM)
IC50 [16]: 100 nM
IC50 [17]: 100 nM
MIC [18]: 0.06 µg/mL (≈ 0.124 µM)
Ratio [19]: >=32 - 267
MIC [20]: 4 µg/mL
IC50 [21]: > 100000 nM
IC50 [22]: 52000 nM
MIC [23]: 2 µg/mL (≈ 4.12 µM)
MIC [24]: 1.02 µM (≈ 0.495 µg/mL)
MIC [25]: 0.12 µg/mL (≈ 0.247 µM)
MIC [26]: 1 µg/mL (≈ 2.06 µM)
selectivity ratio [27]: 51
MIC [28]: 0.06 µg/mL (≈ 0.124 µM)
MIC [29]: 0.06 µg/mL (≈ 0.124 µM)
MIC [30]: 0.12 µg/mL (≈ 0.247 µM)
selectivity ratio [31]: > 433
inhibition at 5 min, 10 µM [32]: 24%
MIC [33]: 0.12 µg/mL (≈ 0.247 µM)
MIC [34]: 32 µg/mL (≈ 65.9 µM)
MIC [35]: 0.12 µg/mL (≈ 0.247 µM)
selectivity ratio [36]: > 258
MIC [37]: 0.25 µg/mL (≈ 0.515 µM)
selectivity ratio [38]: 30

IC50 [39]: 100 nM
IC50 [40]: 14 nM
MIC [41]: 0.06 µg/mL (≈ 0.13 µM)
Compound: COc1ccc2ncc(C#N)c(CCN3CCC(NCc4cc5c(cn4)OCS5)CC3)c2c1

Compound: O=C(O)c1cn(C2CC2)c2cc(N3CCNCC3)c(F)cc2c1=O [CIPROFLOXACIN]
MIC [2]: 32 µg/mL (≈ 96.6 µM)
MIC [3]: > 32 µg/mL
MIC [4]: 0.25 to 0.5 µg/mL
MIC [6]: 0.008 µg/mL (≈ 0.0241 µM)
MIC [8]: 4 to 64 µg/mL (≈ 12.1 to 193 µM)
MIC [10]: ≤ 0.06 µg/mL
MIC [13]: > 4 µg/mL
MIC [14]: 2 µg/mL (≈ 6.04 µM)
MIC [15]: 4 µg/mL (≈ 12.1 µM)
MIC [18]: 64 µg/mL (≈ 193 µM)
MIC [20]: 0.25 µg/mL
MIC [25]: 1 µg/mL (≈ 3.02 µM)
MIC [26]: 0.125 µg/mL (≈ 0.377 µM)
MIC [28]: 64 µg/mL (≈ 193 µM)
MIC [29]: > 128 µg/mL
MIC [30]: 2 µg/mL (≈ 6.04 µM)
MIC [33]: 0.015 µg/mL (≈ 0.0453 µM)
MIC [34]: 16 µg/mL (≈ 48.3 µM)
MIC [35]: 128 µg/mL (≈ 386 µM)
MIC [37]: 128 µg/mL (≈ 386 µM)

Compound: O=c1nc(NCC(O)CN2CCN(c3nccc4ccc(F)cc34)CC2)c2cc(F)ccc2o1 (racemic)
MIC [1]: > 8 µg/mL
MIC [2]: 0.12 µg/mL (≈ 0.257 µM)
MIC [3]: 1 µg/mL (≈ 2.14 µM)
MIC [4]: 0.21 µM
IC50 [5]: 50 nM
MIC [6]: 0.12 µg/mL (≈ 0.257 µM)
IC50 [7]: 20 nM
MIC [8]: 0.25 µg/mL (≈ 0.535 µM)
Ratio [9]: >=32 - 267
MIC [10]: ≤ 0.06 µg/mL
Ratio [11]: >=32 - 267
IC50 [12]: 55000 nM
MIC [13]: > 8 µg/mL
MIC [14]: 0.5 µg/mL (≈ 1.07 µM)
MIC [15]: 1 µg/mL (≈ 2.14 µM)
IC50 [16]: 400 nM
IC50 [17]: 100 nM
MIC [18]: 0.25 µg/mL (≈ 0.535 µM)
Ratio [19]: >=32 - 267
MIC [20]: > 8 µg/mL
IC50 [22]: 80000 nM
MIC [23]: 4 µg/mL (≈ 8.56 µM)
MIC [24]: 2.14 µM (≈ 1 µg/mL)
MIC [25]: 0.5 µg/mL (≈ 1.07 µM)
MIC [26]: 4 µg/mL (≈ 8.56 µM)
selectivity ratio [27]: 37
MIC [28]: 0.25 µg/mL (≈ 0.535 µM)
MIC [29]: 0.12 µg/mL (≈ 0.257 µM)
MIC [30]: 0.25 µg/mL (≈ 0.535 µM)
selectivity ratio [31]: 381
inhibition at 5 min, 10 µM [32]: 67%
MIC [33]: 0.25 µg/mL (≈ 0.535 µM)
MIC [34]: 16 µg/mL (≈ 34.2 µM)
MIC [35]: 0.25 µg/mL (≈ 0.535 µM)
selectivity ratio [36]: 262
MIC [37]: 0.5 µg/mL (≈ 1.07 µM)
selectivity ratio [38]: 26
